Source: patent US12065404B2, “C4-carboxylic acid-substituted tryptamine derivatives and methods of using” (priority 2022, dated 2024)
“And” between values parts separate entries of the source, which are not always exact repeats. Equal values may be shown once. “Also recorded” adds a separate entry of the source. Read-outs that look alike come from different tables or passages of the source. Marks after values point to notes of the source that are not given here.

How the values were obtained:
[1] = target: T1, 5-HT1A receptor (Homo sapiens, UniProt P08908); experiment: cAMP-Glo assay of 5-HT1A receptor modulation, +5-HT1A (CHO-K1/5-HT1A/Ga15) vs -5-HT1A (CHO-K1/Ga15) cells; format: cell-based; design: dose or concentration left out as unconfirmed; conditions: +5-HT1A vs -5-HT1A cell cultures stimulated with forskolin, increasing ligand concentrations
T1 construct: host or cells: CHO-K1 (co-expressing Ga15)
T1 sequence (P08908 1-422): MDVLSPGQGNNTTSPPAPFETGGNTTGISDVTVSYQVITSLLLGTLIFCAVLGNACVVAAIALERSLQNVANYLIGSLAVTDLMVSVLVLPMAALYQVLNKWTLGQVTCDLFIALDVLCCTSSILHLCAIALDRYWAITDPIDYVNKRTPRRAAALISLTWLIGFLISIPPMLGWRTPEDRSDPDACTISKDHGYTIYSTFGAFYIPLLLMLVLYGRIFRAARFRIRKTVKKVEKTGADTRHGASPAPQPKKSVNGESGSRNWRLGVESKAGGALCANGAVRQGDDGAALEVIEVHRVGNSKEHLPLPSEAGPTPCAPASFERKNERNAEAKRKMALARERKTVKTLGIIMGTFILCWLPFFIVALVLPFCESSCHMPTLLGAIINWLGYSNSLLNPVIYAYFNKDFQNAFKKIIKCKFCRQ

[2] = target: T2, neuronal 5-HT2A receptor (5-HT2AR) (Mus musculus, UniProt P35363); experiment: Drug-induced Head Twitch Response (HTR) in mice; format: in vivo, C57BL/6-Elite mice; conditions: 1 mg/kg i.p., 15-to-30-minute window post-drug, relative to vehicle-treated control mice
T2 construct: HTR was measured in mice treated with a control and test compounds; tissue Charles River; host or cells: live C57BL/6-Elite mice (neuronal receptor)

[3] = target: 5-HT2A receptor (Homo sapiens, UniProt P28223); experiment: [3H]ketanserin competition binding assay (SPA) at 5-HT2A; conditions: 1 nM [3H]ketanserin, FIGS. 3E, 3F
[4] = Mouse pharmacokinetic (PK) study, parent compound and psilocin metabolite in plasma; format: in vivo, C57Bl/6 mice; conditions: for Detectability of administered compound in plasma, any animals at any dose: i.v. and oral doses
Excerpt: (§1) Briefly, the procedure was as follows. […] 19, 2022.

[5] = target: GABAA (Homo sapiens, UniProt P14867+P18507+P47870); format: cell-based; conditions: ion channel
[6] = LC-MS measurement of dosing solution concentrations (nominal vs measured); format: physicochemical
Procedure: as §1
Pharmacokinetic (PK) evaluations were performed in the same manner as described in Example 1, except compound C(IV) was used in place of compound C(V). […] Thus, only psilocin PK analysis was performed. […] Table 46 summarizes these “measured” concentrations along with corresponding “nominal” concentrations for each dosing solution. Results for psilocin PK following C(IV) administration are found in Tables 47A-47B (0.293 mg/kg IV dose), Tables 48A-48B (0.275 mg/kg oral dose), Tables 49A-49B (0.789 mg/kg oral dose), Tables 50A-50B (2.52 mg/kg oral dose), Table 51 (comparative summary for IV data), Table 52 (comparative summary for oral data), Table 53A (psilocin exposure) and FIGS. 10H (i) and 10H (ii).

[7] = mouse, prodrug 1 mg/kg i.v., 8 h, individual animals
[8] = mouse, prodrug 1 mg/kg oral, 8 h, individual animals
[9] = mouse, prodrug 1 mg/kg oral, 24 h, individual animals
[10] = mouse, prodrug 3 mg/kg oral, 24 h, individual animals
[11] = mouse, prodrug 10 mg/kg oral, 24 h, individual animals

T2 sequence (P35363 whole entry): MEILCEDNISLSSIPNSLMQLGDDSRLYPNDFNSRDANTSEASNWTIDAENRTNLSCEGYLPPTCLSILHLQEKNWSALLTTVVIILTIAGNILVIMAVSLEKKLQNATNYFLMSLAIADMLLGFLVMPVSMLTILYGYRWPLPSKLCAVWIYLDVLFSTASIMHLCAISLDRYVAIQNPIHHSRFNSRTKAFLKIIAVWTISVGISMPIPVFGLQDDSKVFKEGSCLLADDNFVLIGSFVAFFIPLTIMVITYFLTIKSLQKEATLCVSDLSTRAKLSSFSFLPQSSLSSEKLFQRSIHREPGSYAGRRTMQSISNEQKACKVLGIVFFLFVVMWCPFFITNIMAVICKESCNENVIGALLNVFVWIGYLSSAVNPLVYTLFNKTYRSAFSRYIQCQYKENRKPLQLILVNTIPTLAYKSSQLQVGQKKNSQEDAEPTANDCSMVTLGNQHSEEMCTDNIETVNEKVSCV
Sequence of GABAA (P14867 28-456): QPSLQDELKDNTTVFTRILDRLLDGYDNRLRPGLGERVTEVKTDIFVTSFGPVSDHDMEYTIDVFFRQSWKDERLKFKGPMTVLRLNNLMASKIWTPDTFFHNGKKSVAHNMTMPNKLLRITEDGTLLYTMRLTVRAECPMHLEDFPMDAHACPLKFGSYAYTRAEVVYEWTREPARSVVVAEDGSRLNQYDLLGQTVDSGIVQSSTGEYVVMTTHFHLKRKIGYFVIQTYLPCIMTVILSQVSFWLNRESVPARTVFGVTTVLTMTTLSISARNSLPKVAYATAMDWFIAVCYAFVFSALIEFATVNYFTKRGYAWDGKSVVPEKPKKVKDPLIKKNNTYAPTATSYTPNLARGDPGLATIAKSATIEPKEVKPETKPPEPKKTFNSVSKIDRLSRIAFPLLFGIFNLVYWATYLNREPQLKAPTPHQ
Sequence of GABAA (P47870 26-512): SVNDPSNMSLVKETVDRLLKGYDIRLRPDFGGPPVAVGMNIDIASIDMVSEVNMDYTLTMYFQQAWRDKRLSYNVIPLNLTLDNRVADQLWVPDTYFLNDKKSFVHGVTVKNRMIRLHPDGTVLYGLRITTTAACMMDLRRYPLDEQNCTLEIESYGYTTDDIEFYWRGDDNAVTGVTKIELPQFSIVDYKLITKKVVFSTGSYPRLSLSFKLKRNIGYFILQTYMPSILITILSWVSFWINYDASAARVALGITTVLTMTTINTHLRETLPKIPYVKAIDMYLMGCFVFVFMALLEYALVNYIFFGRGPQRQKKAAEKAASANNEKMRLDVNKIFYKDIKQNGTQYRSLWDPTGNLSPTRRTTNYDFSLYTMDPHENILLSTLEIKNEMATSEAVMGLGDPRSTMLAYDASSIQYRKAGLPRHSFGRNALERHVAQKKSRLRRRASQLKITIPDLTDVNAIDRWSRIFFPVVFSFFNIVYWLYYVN
Sequence of GABAA (P18507 40-475): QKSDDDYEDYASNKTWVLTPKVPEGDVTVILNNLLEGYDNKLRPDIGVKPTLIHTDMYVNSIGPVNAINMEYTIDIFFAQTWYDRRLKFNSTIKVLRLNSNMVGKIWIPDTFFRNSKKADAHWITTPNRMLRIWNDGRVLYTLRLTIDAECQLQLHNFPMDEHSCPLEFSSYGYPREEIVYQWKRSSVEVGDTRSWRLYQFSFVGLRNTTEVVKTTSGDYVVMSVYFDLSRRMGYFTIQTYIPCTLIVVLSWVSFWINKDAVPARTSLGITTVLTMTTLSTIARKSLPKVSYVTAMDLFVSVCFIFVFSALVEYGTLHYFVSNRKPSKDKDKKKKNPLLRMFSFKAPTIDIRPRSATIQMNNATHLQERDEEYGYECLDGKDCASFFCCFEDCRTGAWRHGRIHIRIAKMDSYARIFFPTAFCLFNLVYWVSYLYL
Sequence of 5-HT2A receptor (P28223 whole entry): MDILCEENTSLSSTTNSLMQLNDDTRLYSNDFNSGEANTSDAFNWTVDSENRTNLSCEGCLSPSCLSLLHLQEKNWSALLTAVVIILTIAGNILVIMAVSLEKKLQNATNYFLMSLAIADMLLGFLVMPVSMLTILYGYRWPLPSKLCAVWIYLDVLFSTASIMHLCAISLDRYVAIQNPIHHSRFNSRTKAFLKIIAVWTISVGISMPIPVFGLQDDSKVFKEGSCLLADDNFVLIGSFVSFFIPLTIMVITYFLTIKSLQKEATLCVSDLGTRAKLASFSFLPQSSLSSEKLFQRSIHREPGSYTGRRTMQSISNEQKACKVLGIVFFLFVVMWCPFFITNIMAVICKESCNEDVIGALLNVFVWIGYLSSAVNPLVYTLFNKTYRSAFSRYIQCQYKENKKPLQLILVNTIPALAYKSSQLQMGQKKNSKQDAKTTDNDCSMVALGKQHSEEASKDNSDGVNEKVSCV

CN(C)CCc1c[nH]c2cccc(OC(=O)c3cccc(C(=O)Oc4cccc5[nH]cc(CCN(C)C)c45)c3)c12 [C(VII)]
5-HT1A receptor modulation (reduction of cAMP levels) [1]: no significant receptor modulation | Incidences of Head Twitch Response (HTR) [2]: Elevated incidences of HTR

COC(=O)c1cccc(C(=O)Oc2cccc3[nH]cc(CCN(C)C)c23)c1 [C(XLIII)]
5-HT1A receptor modulation (reduction of cAMP levels) [1]: receptor modulation at higher ligand concentrations

CN(C)CCc1c[nH]c2cccc(O)c12 [psilocin, reference compound]
5-HT1A receptor modulation (reduction of cAMP levels) [1]: reduction in cAMP levels | Competition binding vs [3H]ketanserin at 5-HT2A (control outcome) [3]: binding

COCCOCCOCC(=O)Oc1cccc2[nH]cc(CCN(C)C)c12 [C(III)]
5-HT1A receptor modulation (reduction of cAMP levels) [1]: significant receptor modulation | Incidences of Head Twitch Response (HTR) [2]: Elevated incidences of HTR

CN(C)CCc1c[nH]c2cccc(OC(=O)CC3CC3)c12 [C(IV)]
5-HT1A receptor modulation (reduction of cAMP levels) [1]: significant receptor modulation | Plasma concentration of psilocin ([4]; 0.275 mg/kg oral C(IV), 24 h, animals M64-M66): No Peak | Plasma concentration of psilocin ([4]; 0.789 mg/kg oral C(IV), 24 h, animals M67-M69): No Peak | Detectability of administered compound in plasma, any animals at any dose ([4]; mouse): not detectable in any animals at any dose | IC50 ([5]; blocker (BL)): > 100 µM | EC50 ([5]; opener (OP)): > 100 µM | Psilocin, measured, in C(IV) residual dosing solution ([6]; C(IV) nominal 0.1 mg/mL, not accurate, peak below LLOQ, for reference only): 0.00174^d mg/mL | Psilocin, measured, in C(IV) residual dosing solution ([6]; C(IV) nominal 0.2 mg/mL): 0.00324 mg/mL | Psilocin, measured, in C(IV) residual dosing solution ([6]; C(IV) nominal 0.3 mg/mL): 0.00474 mg/mL | Psilocin, measured, in C(IV) residual dosing solution ([6]; C(IV) nominal 1 mg/mL): 0.0234 mg/mL | Stability in dosing solutions ([6]; PK dosing solutions): compound instability in dosing solutions | C(IV), measured, residual dosing solution concentration ([6]; nominal 0.1 mg/mL): 0.0275 mg/mL | C(IV), measured, residual dosing solution concentration ([6]; nominal 0.2 mg/mL): 0.0586 mg/mL | C(IV), measured, residual dosing solution concentration ([6]; nominal 0.3 mg/mL): 0.0789 mg/mL | C(IV), measured, residual dosing solution concentration ([6]; nominal 1 mg/mL): 0.252 mg/mL | Incidences of Head Twitch Response (HTR) [2]: Elevated incidences of HTR

CN(C)CCc1c[nH]c2cccc(OC(=O)c3c(F)c(F)c(F)c(F)c3F)c12 [C(VI)]
5-HT1A receptor modulation (reduction of cAMP levels) [1]: no receptor modulation at higher ligand concentrations | Detectability of administered compound in plasma, any animals at any dose ([4]; mouse): not detectable in any animals at any dose | Plasma concentration of psilocin [4, 7]: BLQ (BLQ denotes below the lower limit of quantitation (0.2 ng/ml).) | Plasma concentration of psilocin [4, 8]: BLQ (BLQ denotes below the lower limit of quantitation (0.2 ng/ml).) | Plasma concentration of psilocin [4, 9]: BLQ (BLQ denotes below the lower limit of quantitation (0.2 ng/ml).); also recorded: No Peak | Plasma concentration of psilocin [4, 10]: BLQ (BLQ denotes below the lower limit of quantitation (0.2 ng/ml).); also recorded: No Peak | Plasma concentration of psilocin [4, 11]: BLQ (BLQ denotes below the lower limit of quantitation (0.2 ng/ml).) | IC50 ([5]; blocker (BL)): > 100 µM | EC50 ([5]; opener (OP)): > 100 µM | Incidences of Head Twitch Response (HTR) [2]: Elevated incidences of HTR

N[C@@H](Cc1c[nH]c2ccccc12)C(=O)O [tryptophan, reference compound]
5-HT1A receptor modulation (reduction of cAMP levels) [1]: no reduction in cellular cAMP levels | Competition binding vs [3H]ketanserin at 5-HT2A (control outcome) [3]: no binding

COc1ccc(C(=O)Oc2cccc3[nH]cc(CCN(C)C)c23)cc1 [C(V)]
5-HT1A receptor modulation (reduction of cAMP levels) [1]: mild receptor modulation at higher ligand concentrations | Detectability of administered compound in plasma, i.v. administered animals ([4]; mouse, 1 mg/kg i.v.): only detectable in i.v. administered animals | Detectability of administered compound in plasma, orally administered animals ([4]; mouse, oral, any dose (1, 3, 10 mg/kg)): not detectable in orally administered animals at any dose | Plasma concentration of administered (parent) compound ([4]; mouse, 1 mg/kg i.v., 5 min, individual animals, 1 mg/kg): 6.53 ng/mL and 53.8 ng/mL and 13.5 ng/mL | Plasma concentration of administered (parent) compound ([4]; mouse, 1 mg/kg i.v., 5 min, mean ± SD): 24.6 ± 25.5 ng/mL | Plasma concentration of administered (parent) compound ([4]; mouse, 1 mg/kg i.v., 0.25 h, individual animals, 1 mg/kg): BLQ (BLQ denotes below the lower limit of quantitation (0.5 ng/mL).) | Plasma concentration of administered (parent) compound ([4]; mouse, 1 mg/kg i.v., 0.25 h, mean ± SD): 0.834 (n = 1) ng/mL | Plasma concentration of administered (parent) compound ([4]; mouse, 1 mg/kg i.v., 0.5 h, individual animals, 1 mg/kg): BLQ (BLQ denotes below the lower limit of quantitation (0.5 ng/mL).); also recorded: No Peak | Plasma concentration of administered (parent) compound ([4]; mouse, 1 mg/kg i.v., 1 h, individual animals): No Peak | Plasma concentration of administered (parent) compound ([4]; mouse, 1 mg/kg i.v., 2 h, individual animals): No Peak | Plasma concentration of administered (parent) compound ([4]; mouse, 1 mg/kg i.v., 4 h, individual animals): No Peak | Plasma concentration of administered (parent) compound ([4]; mouse, 1 mg/kg i.v., 6 h, individual animals): No Peak | Plasma concentration of administered (parent) compound ([4]; mouse, 1 mg/kg i.v., 8 h, individual animals): No Peak | Cmax of administered (parent) compound ([4]; mouse, 1 mg/kg i.v., individual animals, 1 mg/kg): 6.53 ng/mL and 53.8 ng/mL and 13.5 ng/mL | Cmax of administered (parent) compound ([4]; mouse, 1 mg/kg i.v., mean ± SD): 24.6 ± 25.5 ng/mL | Plasma concentration of psilocin [4, 7]: BLQ (BLQ denotes below the lower limit of quantitation (0.2 ng/ml).) | Plasma concentration of psilocin [4, 8]: BLQ (BLQ denotes below the lower limit of quantitation (0.2 ng/ml).) | Plasma concentration of psilocin [4, 9]: No Peak; also recorded: BLQ (BLQ denotes below the lower limit of quantitation (0.2 ng/ml).) | Plasma concentration of psilocin [4, 10]: No Peak; also recorded: BLQ (BLQ denotes below the lower limit of quantitation (0.2 ng/ml).) | Plasma concentration of psilocin [4, 11]: BLQ (BLQ denotes below the lower limit of quantitation (0.2 ng/ml).); also recorded: No Peak | Stability in plasma ([4]; plasma, LC-MS bioanalysis of the mouse PK study): unstable in plasma; also recorded: ^aA freshly spiked calibration curve was used for quantification C(V) is not stable in plasma; concentrations are not considered accurate; also recorded: ^aDue to C(V) instability in plasma, the PK parameter estimates are not considered accurate | IC50 ([5]; blocker (BL) mode): > 100 µM | EC50 ([5]; opener (OP) mode): > 100 µM | Incidences of Head Twitch Response (HTR) [2]: Elevated incidences of HTR

NCCc1c[nH]c2ccc(O)cc12 [serotonin, reference compound]
5-HT1A receptor modulation (reduction of cAMP levels) [1]: reduction in cAMP levels
